In brackets after ≈: the same amount, converted by molar mass. Several values for one entry are separate records, joined by “and”; a condition that tells them apart may be missing. Equal values may be shown once. Where a name gives a salt, the structure may show the parent alone.
Columns and labels:
THP-1 cells = experiment: Example D: LPS-triggered THP-1 cell death assay, acute/5-hour and chronic/48-hour; assay type: cell-based, Human; settings: for Viable cell percent change, Chronic/48-hour, Mean: 10 ng/ml LPS, 0.1 μM test compound; for activity relative to AC in the LPS-triggered THP-1 cell death assay, in words: 0.1 μM, 5-hour and 48-hour time points
Method: Compounds of the invention were tested at 0.1 μM versus AC in the LPS-triggered THP-1 cell death assay. Both acute/5-hour and chronic/48-hour phases of cell death were assessed. Compounds were screened in batches with DMSO as the negative control and AC as the high activity control.

S. cerevisiae = experiment: Example I: Saccharomyces cerevisiae growth inhibition (OD 600 nm); assay type: cell-based; settings: Saccharomyces cerevisiae, 18 hour incubation at 30° C., OD 600 nm, XLfit; for IC50: read-out: IC50, uM (50% inhibition of fungal growth); for MIC: read-out: MIC, uM (99% of inhibition of fungal growth)
[1] = test system: 4T1 murine breast cancer cells; experiment: Example S: in vitro anticancer screen, 4T1 cells, Wst1; assay type: cell-based, mouse; settings: Mus musculus, 4T1, 18 h, 18 hr, Wst1; for viability at 1 µM: read-out: 4T1 1 μM, percent of cancer cell survival relative to vehicle treated cells; for viability at 5 µM: read-out: 4T1 5 μM, percent of cancer cell survival relative to vehicle treated cells
Outline: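 Read-out is Wst1 absorbance (450 nm, reference 630 nm) after roughly 2 hr dye incubation, giving percent cell survival versus vehicle. Before that, compounds at 1 μM or 5 μM were applied for 18 hr to 4T1 cells plated at 1×10^4 per well.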

[2] = test system: PC3 human prostate cancer cells; experiment: Example S: in vitro anticancer screen, PC-3 cells, Wst1; assay type: cell-based; settings: Homo sapiens, PC-3, approximately 20 hours, Wst1, read-out: PC-3, percent of cancer cell survival relative to vehicle treated cells
Outline: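 Values give percent survival relative to vehicle, read by Wst1 absorbance (450/630 nm) after 2 h dye incubation, in triplicate. Cells were seeded at 2×10^4/well and treated about 20 h with compound at 0.4, 0.5 or 2.5 μM, depending on compound.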

[3] = test system: PC-3 prostate cancer cells; experiment: Example T: sensitisation of PC-3 cells to doxorubicin, oxaliplatin, paclitaxel or vincristine, Wst1; assay type: cell-based, human; settings: PC-3 cells, 72 hours; for viability at 0.4 µM: compound 0.4 μM alone; for Doxorubicin 3.5 μM: percent cell survival / Oxaliplatin 100 μM: percent cell survival / Paclitaxel 50 μM: percent cell survival / Vincristine 100 nM: percent cell survival: chemotherapy agent alone normalized to 100%; for viability at 2.5 µM: compound 2.5 μM alone
[4] = Homo sapiens, Wst1, vehicle = 100, read-out: No Chemo: percent cell survival
[5] = compound 0.4 μM + doxorubicin 3.5 μM
[6] = compound 0.4 μM + oxaliplatin 100 μM
[7] = compound 0.4 μM + paclitaxel 50 μM
[8] = compound 0.4 μM + vincristine 100 nM
[9] = compound 2.5 μM + doxorubicin 3.5 μM
[10] = compound 2.5 μM + oxaliplatin 100 μM
[11] = compound 2.5 μM + paclitaxel 50 μM
[12] = compound 2.5 μM + vincristine 100 nM

Row | SMILES | Viable cell percent change, Chronic/48-hour, Mean (THP-1 cells) [%] | IC50 (S. cerevisiae) [µM] | MIC (S. cerevisiae) [µM] | viability at 1 µM [1] [%] | viability at 5 µM [1] [%] | viability at 0.4 µM [2] [%] | viability at 0.4 µM [3, 4] [%] | Doxorubicin 3.5 μM: percent cell survival [3, 5] [%] | Oxaliplatin 100 μM: percent cell survival [3, 6] [%] | Paclitaxel 50 μM: percent cell survival [3, 7] [%] | Vincristine 100 nM: percent cell survival [3, 8] [%] | also measured
1 | CCCCCCOc1cccc(OCCCNc2ccnc3ccccc23)c1 [AZ, N-{3-[3-(Hexyloxy)phenoxy]propyl}quinolin-4-amine] | 50.12 | 18.6 | 24.1 (≈ 9.11 µg/mL) | 52.2 | 29.1 | 95.4 | 95.4 | 33.6 | 26.9 | 54.1 | 71.2 | –
2 | CCCCCCOc1ccc(CNc2ccnc3ccccc23)cc1F [BK, N-[3-Fluoro-4-(hexyloxy)benzyl]quinolin-4-amine] | 43.69 | 21.4 | 29.4 (≈ 10.4 µg/mL) | – | – | 29.2 | 29.2 | 32.1 | 27.3 | 20.6 | 28.3 | activity relative to AC in the LPS-triggered THP-1 cell death assay, in words (THP-1 cells): equivalent activity to AC at both the 5-hour and 48-hour time points
3 | CCCCCCOc1cccc(CNc2ncnc3ccccc23)c1 [AK, N-[3-(Hexyloxy)benzyl]quinazolin-4-amine] | – | 23.5 | – | – | – | – | – | – | – | – | – | activity relative to AC in the LPS-triggered THP-1 cell death assay, in words (THP-1 cells): equivalent activity to AC at both the 5-hour and 48-hour time points
4 | CCCCCCOCCCCCCCCNc1ccncn1 [AU, N-[8-(Hexyloxy)octyl]pyrimidin-4-amine] | 16.86 | 18 | 24.3 (≈ 7.46 µg/mL) | 93 | 23.2 | – | – | – | – | – | – | viability at 2.5 µM [2]: 32.4%; viability at 2.5 µM [3, 4]: 32.4%; Doxorubicin 3.5 μM: percent cell survival [3, 9]: 25.7%; Oxaliplatin 100 μM: percent cell survival [3, 10]: 41.1%; Paclitaxel 50 μM: percent cell survival [3, 11]: 34.2%; Vincristine 100 nM: percent cell survival [3, 12]: 32%
5 | Fc1cccc(OCCCCCCCCNc2ccnc3ccccc23)c1 [BI, N-[8-(3-Fluorophenoxy)octyl]quinolin-4-amine] | 27.30 | 28.6 | 47.1 (≈ 17.3 µg/mL) | 30 | 17.3 | 111 | 111 | 76.6 | 84.3 | 71.7 | 81.7 | –
6 | Cc1ccccc1OCCCCCCCCNc1ccnc2ccccc12 [BG, N-[8-(o-Tolyloxy)octyl]quinolin-4-amine] | – | 9.88 | 11.8 (≈ 4.29 µg/mL) | 17.4 | 17.8 | 99.1 | 99.1 | 40.1 | 36.2 | 59.2 | 71.1 | Viable cell percent change, Chronic/48-hour, Mean (THP-1 cells; 0.1 µM): 38.39% and 31.07%
7 | Fc1ccc(OCCCCCCCCNc2ccnc3ccccc23)cc1 [BJ, N-[8-(4-Fluorophenoxy)octyl]quinolin-4-amine] | 18.03 | 21.4 | 37.8 (≈ 13.9 µg/mL) | 16.9 | 31.3 | 23.9 | 23.9 | 56.8 | 64.1 | 50.2 | 50.8 | –
8 | CCCCCCOCCCCCCCC[n+]1ccc(N)cc1 [BO, 4-Amino-1-[8-(hexyloxy)octyl]pyridinium salts] | 28.35 | – | – | 20.7 | 18.6 | 13.4 | 13.4 | 82.4 | 28.4 | 28.2 | 18.4 | –
9 | c1ccc(Oc2cccc(CNc3ncnc4ccccc34)c2)cc1 [BM, N-(3-Phenoxybenzyl)quinazolin-4-amine] | 29.97 | 30.6 | 50.5 (≈ 16.5 µg/mL) | – | – | – | – | – | – | – | – | activity relative to AC in the LPS-triggered THP-1 cell death assay, in words (THP-1 cells): more active than AC at the chronic/48-hour time point
10 | CCCCCCOCCCCCCCCNc1cc(C)nc2ccccc12 [AV, N-[8-(Hexyloxy)octyl]-2-methylquinolin-4-amine] | 38.76 | 19.7 | 19.8 (≈ 7.32 µg/mL) | 136 | 30 | – | – | – | – | – | – | viability at 2.5 µM [2]: 38.2%; viability at 2.5 µM [3, 4]: 38.2%; Doxorubicin 3.5 μM: percent cell survival [3, 9]: 62.6%; Oxaliplatin 100 μM: percent cell survival [3, 10]: 59.3%; Paclitaxel 50 μM: percent cell survival [3, 11]: 34.4%; Vincristine 100 nM: percent cell survival [3, 12]: 37.2%
11 | Cc1cccc(OCCCCCCCCNc2ccnc3ccccc23)c1 [BE, N-[8-(m-Tolyloxy)octyl]quinolin-4-amine] | 33.86 | 19.2 | 24.1 (≈ 8.75 µg/mL) | 23.1 | 18.7 | 99.1 | 99.1 | 44.1 | 41.2 | 64 | 74.9 | –
12 | CCCCCCOCCCCCCCCn1cnc2cnccc21 [AS, 1-[8-(Hexyloxy)octyl]-1H-imidazo[4,5-c]pyridine] | 3.86 | 38.5 | 48.9 (≈ 16.2 µg/mL) | 94.6 | 23.1 | – | – | – | – | – | – | viability at 2.5 µM [2]: 31.1%; viability at 2.5 µM [3, 4]: 31.1%; Doxorubicin 3.5 μM: percent cell survival [3, 9]: 51.1%; Oxaliplatin 100 μM: percent cell survival [3, 10]: 55.5%; Paclitaxel 50 μM: percent cell survival [3, 11]: 36.8%; Vincristine 100 nM: percent cell survival [3, 12]: 30.8%
13 | CCCCOCCCCCCCCCCn1cnc2cnccc21 [AT, 1-(10-Butoxydecyl)-1H-imidazo[4,5-c]pyridine] | 30.34 | – | – | 31.7 | 18.7 | 34.6 | 34.6 | 65.4 | 76.8 | 57.4 | 32.9 | –
14 | CCCCCCOc1ccc(CNc2ccnc3ccccc23)cc1 [AA, N-[4-(Hexyloxy)benzyl]quinolin-4-amine] | – | – | – | 69.1 | 31.2 | – | – | – | – | – | – | viability at 1.5 µM ([2]; 1.5 μM): 82.6%; viability at 1.5 µM ([3]; Homo sapiens, compound 1.5 μM alone, Wst1, vehicle = 100, read-out: No Chemo: percent cell survival): 82.6%; Doxorubicin 3.5 μM: percent cell survival ([3]; compound 1.5 μM + doxorubicin 3.5 μM): 38.6%; Oxaliplatin 100 μM: percent cell survival ([3]; compound 1.5 μM + oxaliplatin 100 μM): 31%; Paclitaxel 50 μM: percent cell survival ([3]; compound 1.5 μM + paclitaxel 50 μM): 22.2%; Vincristine 100 nM: percent cell survival ([3]; compound 1.5 μM + vincristine 100 nM): 43%
15 | c1ccc(Oc2cccc(CNc3ccnc4ccccc34)c2)cc1 [AF, N-(3-Phenoxybenzyl)quinolin-4-amine] | 13.79 | – | – | 24.7 | 25.6 | 19.1 | 19.1 | 35 | 32.4 | 25.2 | 22.6 | activity relative to AC in the LPS-triggered THP-1 cell death assay, in words (THP-1 cells): more active than AC at the chronic/48-hour time point
